Measured values from US20200399222A1, “PICOLINAMIDES AS FUNGICIDES” (Dow AgroSciences LLC, priority 2018, published 2020).
Read-outs that look alike come from different tables or passages of the source.

Tests used:
Zymoseptoria tritici = experiment: Leaf blotch of wheat (SEPTTR) disease control on wheat seedlings; format: in vivo; settings: High volume application, 100 ppm
Protocol: Example A: Evaluation of Fungicidal Activity: Leaf Blotch of Wheat (Zymoseptoria tritici; Bayer Code […]) Technical grades of materials were dissolved in acetone, which were then mixed with nine volumes of water containing 110 ppm Triton X-100. The fungicide solutions were applied onto wheat seedlings using an automated booth sprayer to run-off. All sprayed plants were allowed to air dry prior to further handling. All fungicides were evaluated using the aforementioned method for their activity vs. all target diseases, unless stated otherwise. Wheat leaf blotch and brown rust activity were also evaluated using track spray applications, in which case the fungicides were formulated as EC formulations, containing 0.1% Trycol 5941 in the spray solutions. Wheat plants (variety Yuma) were grown from seed in a greenhouse in 50% mineral soil/50% soil-less Metro mix until the first leaf was fully emerged, with 7-10 seedlings per pot. These plants were inoculated with an aqueous spore suspension of Zymoseptoria tritici either prior to or after fungicide treatments. After inoculation the plants were kept in 100% relative humidity (one day in a dark dew chamber followed by two to three days in a lighted dew chamber at 20° C.) to permit spores to germinate and infect the leaf. The plants were then transferred to a greenhouse set at 20° C. for disease to develop. When disease symptoms were fully expressed on the 1st leaves of untreated plants, infection levels were assessed on a scale of 0 to 100 percent disease severity. Percent disease control was calculated using the ratio of disease severity on treated plants relative to untreated plants.

Puccinia triticina = experiment: Wheat brown rust (PUCCRT) disease control on wheat seedlings; format: in vivo; settings: High volume application, 100 ppm
Protocol: Technical grades of materials were dissolved in acetone, which were then mixed with nine volumes of water containing 110 ppm Triton X-100. The fungicide solutions were applied onto wheat seedlings using an automated booth sprayer to run-off. All sprayed plants were allowed to air dry prior to further handling. All fungicides were evaluated using the aforementioned method for their activity vs. all target diseases, unless stated otherwise. Wheat leaf blotch and brown rust activity were also evaluated using track spray applications, in which case the fungicides were formulated as EC formulations, containing 0.1% Trycol 5941 in the spray solutions. Example B: Evaluation of Fungicidal Activity: Wheat Brown Rust (Puccinia triticina; Synonym: Puccinia recondita f. sp. tritici; Bayer Code PUCCRT) Wheat plants (variety Yuma) were grown from seed in a greenhouse in 50% mineral soil/50% soil-less Metro mix until the first leaf was fully emerged, with 7-10 seedlings per pot. These plants were inoculated with an aqueous spore suspension of Puccinia triticina either prior to or after fungicide treatments. After inoculation the plants were kept in a dark dew room at 22° C. with 100% relative humidity overnight to permit spores to germinate and infect the leaf. The plants were then transferred to a greenhouse set at 24° C. for disease to develop. Fungicide formulation, application and disease assessment followed the procedures as described in the Example A.

[1] = 24 h, 1 Day Protectant, read-out: SEPTTR disease control rating, 1DP
[2] = 72 h, 3 Day Curative, read-out: SEPTTR disease control rating, 3DC
[3] = 24 h, 1 Day Protectant, read-out: PUCCRT disease control rating, 1DP
[4] = 72 h, 3 Day Curative, read-out: PUCCRT disease control rating, 3DC

| SMILES | pest or weed control at 100 ppm (Zymoseptoria tritici; [1]) [%] | pest or weed control at 100 ppm (Zymoseptoria tritici; [2]) [%] | pest or weed control at 100 ppm (Puccinia triticina; [3]) [%] | pest or weed control at 100 ppm (Puccinia triticina; [4]) [%] |
| --- | --- | --- | --- | --- |
| COc1ccnc(C(=O)N[C@H](C)C(=O)O[C@H](C)[C@@H](C)c2ccccc2C)c1O [Example 155] | < 80 | < 80 | < 80 | < 80 |
| COc1ccnc(C(=O)N[C@@H](C)C(=O)O[C@H](C)[C@H](C)c2ccc(F)cc2)c1O [Example 136] | < 80 | < 80 | > 80 | < 80 |
| COc1ccnc(C(=O)N[C@@H](C)C(=O)O[C@H](C)[C@@H](C)c2ccccc2C)c1O [Example 135] | < 80 | < 80 | < 80 | < 80 |
| COc1cc(F)ccc1[C@@H](C)[C@@H](C)OC(=O)[C@H](C)NC(=O)c1nccc(OC)c1O [Example 173] | < 80 | < 80 | > 80 | < 80 |
| COc1ccnc(C(=O)N[C@H](C(=O)O[C@@H](C)[C@H](C)c2ccccc2C)C(C)C)c1O [Example 140] | < 80 | < 80 | > 80 | < 80 |
| COc1ccnc(C(=O)N[C@H](C)C(=O)O[C@@H](C)[C@@H](C)c2ccc(F)cc2)c1O [Example 151] | < 80 | < 80 | < 80 | < 0 |
| COc1ccnc(C(=O)N[C@H](C(=O)O[C@H](C)[C@@H](C)c2ccccc2C)C(C)C)c1O [Example 145] | < 80 | < 80 | < 80 | < 80 |
| COc1ccnc(C(=O)NCC(=O)O[C@H](C)[C@H](C)c2ccc(F)cc2)c1O [Example 126] | < 0 | < 80 | > 80 | < 80 |
| COc1ccnc(C(=O)N[C@@H](C)C(=O)O[C@@H](C)[C@@H](C)C2CCCC2)c1O [Example 160] | < 80 | < 80 | < 80 | > 80 |
| COc1ccnc(C(=O)N[C@H](C)C(=O)O[C@@H](C)[C@H](C)c2ccc(F)cc2C)c1O [Example 149] | < 80 | < 80 | < 0 | < 0 |
| COc1ccnc(C(=O)N[C@H](C)C(=O)O[C@@H](C)[C@@H](C)c2ccc(F)cc2C)c1O [Example 148] | > 80 | < 80 | > 80 | < 80 |
| COc1ccc([C@H](C)[C@H](C)OC(=O)[C@H](C)NC(=O)c2nccc(OC)c2O)c(C)c1 [Example 132] | > 80 | < 80 | > 80 | > 80 |
| COc1ccnc(C(=O)N[C@@H](C)C(=O)OC(C)C(C)c2c(C)cc(F)cc2C)c1O (stereo partly shown) [Example 165] | > 80 | > 80 | > 80 | > 80 |
| COc1ccc([C@H](C)[C@H](C)OC(=O)[C@@H](C)NC(=O)c2nccc(OC)c2O)c(C)c1 [Example 152] | < 80 | < 80 | > 80 | < 80 |
| COc1ccc([C@@H](C)[C@@H](C)OC(=O)[C@@H](NC(=O)c2nccc(OC)c2O)C(C)C)c(C)c1 [Example 147] | > 80 | < 80 | > 80 | < 80 |
| COc1ccnc(C(=O)N[C@@H](C)C(=O)O[C@H](C)[C@H](C)c2c(C)cc(F)cc2C)c1O [Example 169] | > 80 | > 80 | > 80 | > 80 |

| SMILES | pest or weed control at 100 ppm (Zymoseptoria tritici; [1]) [%] | pest or weed control at 100 ppm (Zymoseptoria tritici; [2]) [%] | pest or weed control at 100 ppm (Puccinia triticina; [3]) [%] | pest or weed control at 100 ppm (Puccinia triticina; [4]) [%] |
| --- | --- | --- | --- | --- |
| COc1ccnc(C(=O)N[C@H](C)C(=O)O[C@H](C)[C@H](C)c2ccc(F)cc2C)c1O [Example 153] | < 80 | < 80 | < 80 | < 80 |
| COc1ccnc(C(=O)N[C@H](C(=O)O[C@@H](C)[C@@H](C)c2ccc(F)cc2)C(C)C)c1O [Example 141] | > 80 | < 80 | > 80 | < 80 |
| COc1ccnc(C(=O)N[C@@H](C)C(=O)O[C@@H](C)[C@@H](C)c2ccc(N(C)C)cc2)c1O [Example 176] | < 0 | < 80 | > 80 | < 80 |
| COc1ccnc(C(=O)N[C@H](C)C(=O)O[C@H](C)[C@@H](C)c2ccc(F)cc2C)c1O [Example 154] | < 80 | < 80 | < 0 | < 0 |
| COc1ccnc(C(=O)N[C@H](C(=O)O[C@@H](C)[C@H](C)c2ccc(F)cc2C)C(C)C)c1O [Example 139] | < 80 | < 80 | < 80 | < 0 |
| COc1ccccc1[C@H](C)[C@H](C)OC(=O)[C@H](C)NC(=O)c1nccc(OC)c1O [Example 170] | < 80 | < 80 | > 80 | > 80 |
| COc1ccnc(C(=S)N[C@@H](C)C(=O)O[C@@H](C)[C@@H](C)c2ccc(F)cc2C(F)(F)F)c1O [Example 268] | < 80 | < 80 | > 80 | < 80 |
| COc1ccnc(C(=S)N[C@@H](C)C(=O)O[C@@H](C)[C@@H](C)c2ccccc2C(F)(F)F)c1O [Example 267] | < 80 | < 80 | > 80 | < 80 |
| COc1ccc([C@@H](C)[C@@H](C)OC(=O)[C@@H](C)NC(=O)c2nccc(OC)c2O)c(C)c1 [Example 157] | < 80 | < 80 | < 80 | < 0 |
| COc1ccnc(C(=O)N[C@@H](C)C(=O)O[C@@H](C)[C@@H](C)c2ccccc2)c1O [Example 171] | < 80 | < 80 | > 80 | > 80 |
| COc1ccc([C@@H](C)[C@@H](C)OC(=O)CNC(=O)c2nccc(OC)c2O)c(C)c1 [Example 127] | < 0 | < 80 | < 80 | < 80 |
| COc1ccnc(C(=O)N[C@H](C(=O)O[C@H](C)[C@H](C)c2ccc(F)cc2C)C(C)C)c1O [Example 143] | < 80 | < 80 | > 80 | < 0 |
| COc1ccnc(C(=O)NCC(=O)O[C@H](C)[C@@H](C)c2ccccc2C)c1O [Example 125] | < 0 | < 80 | < 80 | < 0 |
| COc1ccnc(C(=O)N[C@H](C(=O)O[C@@H](C)[C@@H](C)c2ccc(F)cc2C)C(C)C)c1O [Example 138] | > 80 | < 80 | > 80 | > 80 |
| COc1ccnc(C(=O)NCC(=O)O[C@@H](C)[C@H](C)c2ccc(F)cc2C)c1O [Example 119] | < 0 | < 80 | > 80 | < 80 |
